These results are taken from article PMC9250534, “Synthesis and direct assay of large macrocycle diversities by combinatorial late-stage modification at picomole scale” (Nature Communications, 2022).

Sequence of MDM2 (Q00987 whole entry): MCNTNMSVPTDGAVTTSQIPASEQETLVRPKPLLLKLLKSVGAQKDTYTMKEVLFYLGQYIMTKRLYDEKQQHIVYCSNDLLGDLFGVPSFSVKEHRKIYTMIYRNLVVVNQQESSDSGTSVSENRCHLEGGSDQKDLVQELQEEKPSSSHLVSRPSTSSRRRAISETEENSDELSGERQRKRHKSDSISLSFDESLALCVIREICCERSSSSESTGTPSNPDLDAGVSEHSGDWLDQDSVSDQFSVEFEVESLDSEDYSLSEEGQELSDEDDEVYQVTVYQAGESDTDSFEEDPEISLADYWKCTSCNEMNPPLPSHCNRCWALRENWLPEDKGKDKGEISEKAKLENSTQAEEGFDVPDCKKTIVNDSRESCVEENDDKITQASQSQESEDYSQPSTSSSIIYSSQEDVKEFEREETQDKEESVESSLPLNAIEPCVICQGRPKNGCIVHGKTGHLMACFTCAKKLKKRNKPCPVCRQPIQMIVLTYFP

The first assay deals with MDM2 (Homo sapiens, UniProt Q00987). Kind of assay: MDM2 binding screen of Libraries 3 and 4: displacement of fluorescent probe F-M8 at 750 nM macrocycle. The settings on record: 750 nM macrocycle; crude reaction; probe F-M8. As to the method:
The cyclic peptide scaffolds required for Libraries 3 and 4 were synthesized as described for those used in Library 2. Due to the presence of many N-methylated amino acids which are more difficult to couple, 200 mM HOAt was applied together with HATU. The scaffolds were diluted to 2 mM in DMSO, and 15 nL were transferred using acoustic dispensing, followed by 15 nL DMSO containing carboxylic acids (40 mM, 20 equiv.), HBTU (40 mM) and DABCO (40 mM). After 6 h reaction at room temperature, 370 nL of DMSO was added to each well, followed by 5 μL of 100 mM Tris-Cl pH 7.4 containing 0.01% v/v Tween20, for quenching overnight.
With `COc1ccc(/C=C/C(=O)NC[C@@H]2NC(=O)[C@H]3CCCN(C3)C(=O)CCSSCCNC(=O)[C@H](Cc3c[nH]c4ccccc34)NC2=O)cc1` [M9], the “displacement of fluorescent probe from MDM2” value was 68%.

Still in this assay, the particulars now being: Panel b, Library 3: 63 scaffolds combinatorially acylated with 15 carboxylic acids at 30 picomole scale; displacement of fluorescent peptide probe; macrocycle 750 nM.
As for `O=C1CCSSCCNC(=O)[C@H](Cc2cccc3ccccc23)NC(=O)[C@@H](CNC(=O)c2ccc(Cl)s2)NC(=O)C2(CC2)CN1` [X-Amcp-D-Dap-1-NaI + Acid 14], the “fraction of fluorescent probe displaced” value came to 0.008.

For the molecule `O=C1CCSSCCNC(=O)[C@H](Cc2cccc3ccccc23)NC(=O)[C@@H](CNC(=O)c2ccc3ccccc3c2)NC(=O)C2(CC2)CN1` [X-Amcp-D-Dap-1-NaI + Acid 107], the “fraction of fluorescent probe displaced” value is reported as -0.00844.

On to `O=C(/C=C/c1ccc(Cl)cc1)NC[C@H]1NC(=O)C2(CC2)CNC(=O)CCSSCCNC(=O)[C@H](Cc2cccc3ccccc23)NC1=O` [X-Amcp-D-Dap-1-NaI + Acid 108], for which the “fraction of fluorescent probe displaced” value turned out to be 0.021.

As for `O=C(/C=C/c1ccc(OCc2ccccc2)cc1)NC[C@H]1NC(=O)C2(CC2)CNC(=O)CCSSCCNC(=O)[C@H](Cc2cccc3ccccc23)NC1=O` [X-Amcp-D-Dap-1-NaI + Acid 110], the “fraction of fluorescent probe displaced” value is 0.028.

On to `O=C1CCSSCCNC(=O)[C@H](Cc2cccc3ccccc23)NC(=O)[C@@H](CNC(=O)c2cccc(Oc3ccccc3)c2)NC(=O)C2(CC2)CN1` [X-Amcp-D-Dap-1-NaI + Acid 111], for which the “fraction of fluorescent probe displaced” value is reported as 0.008.

For `O=C(/C=C/c1ccc2ccccc2c1)NC[C@H]1NC(=O)C2(CC2)CNC(=O)CCSSCCNC(=O)[C@H](Cc2cccc3ccccc23)NC1=O` [X-Amcp-D-Dap-1-NaI + Acid 112], the “fraction of fluorescent probe displaced” value is listed as -0.00533.

Turning to `CC(Oc1cccc(Cl)c1)C(=O)NC[C@H]1NC(=O)C2(CC2)CNC(=O)CCSSCCNC(=O)[C@H](Cc2cccc3ccccc23)NC1=O` (stereo partly drawn) [X-Amcp-D-Dap-1-NaI + Acid 113], the “fraction of fluorescent probe displaced” value was -0.00533.

As for `O=C(CCS(=O)(=O)c1ccccc1)NC[C@H]1NC(=O)C2(CC2)CNC(=O)CCSSCCNC(=O)[C@H](Cc2cccc3ccccc23)NC1=O` [X-Amcp-D-Dap-1-NaI + Acid 114], the “fraction of fluorescent probe displaced” value was determined as 0.028.

In the case of `O=C1CCSSCCNC(=O)[C@H](Cc2cccc3ccccc23)NC(=O)[C@@H](CNC(=O)C2COc3ccccc3O2)NC(=O)C2(CC2)CN1` (stereo partly drawn) [X-Amcp-D-Dap-1-NaI + Acid 115], the “fraction of fluorescent probe displaced” value is reported as 0.015.

Turning to `O=C1CCSSCCNC(=O)[C@H](Cc2ccc3ccccc3c2)NC(=O)[C@@H](CNC(=O)c2ccc(Cl)s2)NC(=O)C2(CC2)CN1` [X-Amcp-D-Dap-2-Nal + Acid 14], the “fraction of fluorescent probe displaced” value amounted to 0.00133.

For `O=C1CCSSCCNC(=O)[C@H](Cc2ccc3ccccc3c2)NC(=O)[C@@H](CNC(=O)c2ccc(Cl)cc2)NC(=O)C2(CC2)CN1` [X-Amcp-D-Dap-2-Nal + Acid 25], the “fraction of fluorescent probe displaced” value is reported as -0.019.

As for `O=C1CCSSCCNC(=O)C(Cc2ccc3ccccc3c2)NC(=O)C(CNC(=O)C2CC2c2ccccc2)NC(=O)C2(CC2)CN1` [X-Amcp-D-Dap-2-Nal + Acid 105], the “fraction of fluorescent probe displaced” value is recorded as -0.00844.

Turning to `O=C(/C=C/c1ccc(Cl)cc1)NC[C@H]1NC(=O)C2(CC2)CNC(=O)CCSSCCNC(=O)[C@H](Cc2ccc3ccccc3c2)NC1=O` [X-Amcp-D-Dap-2-Nal + Acid 108], the “fraction of fluorescent probe displaced” value worked out at 0.008.

Take `O=C(/C=C/c1ccc(OCc2ccccc2)cc1)NC[C@H]1NC(=O)C2(CC2)CNC(=O)CCSSCCNC(=O)[C@H](Cc2ccc3ccccc3c2)NC1=O` [X-Amcp-D-Dap-2-Nal + Acid 110]: the “fraction of fluorescent probe displaced” value was found to be 0.028.

Regarding `O=C1CCSSCCNC(=O)[C@H](Cc2ccc3ccccc3c2)NC(=O)[C@@H](CNC(=O)c2cccc(Oc3ccccc3)c2)NC(=O)C2(CC2)CN1` [X-Amcp-D-Dap-2-Nal + Acid 111], the “fraction of fluorescent probe displaced” value was -0.00533.

On to `O=C(CCS(=O)(=O)c1ccccc1)NC[C@H]1NC(=O)C2(CC2)CNC(=O)CCSSCCNC(=O)[C@H](Cc2ccc3ccccc3c2)NC1=O` [X-Amcp-D-Dap-2-Nal + Acid 114], for which the “fraction of fluorescent probe displaced” value is recorded as -0.00533.

For `O=C1CCSSCCNC(=O)[C@H](Cc2ccc3ccccc3c2)NC(=O)[C@@H](CNC(=O)C2COc3ccccc3O2)NC(=O)C2(CC2)CN1` (stereo partly drawn) [X-Amcp-D-Dap-2-Nal + Acid 115], the “fraction of fluorescent probe displaced” value is on record as 0.015.

As to `O=C1CCSSCCNC(=O)[C@H](Cc2c[nH]c3cc(Cl)ccc23)NC(=O)[C@@H](CNC(=O)c2ccc(Cl)s2)NC(=O)C2(CC2)CN1` [X-Amcp-D-Dap-Cl-Trp + Acid 14], the “fraction of fluorescent probe displaced” value stood at 0.008.

Turning to `O=C1CCSSCCNC(=O)[C@H](Cc2c[nH]c3cc(Cl)ccc23)NC(=O)[C@@H](CNC(=O)c2ccc(Cl)cc2)NC(=O)C2(CC2)CN1` [X-Amcp-D-Dap-Cl-Trp + Acid 25], the “fraction of fluorescent probe displaced” value is 0.021.

With `O=C(/C=C/c1ccncc1)NC[C@H]1NC(=O)C2(CC2)CNC(=O)CCSSCCNC(=O)[C@H](Cc2c[nH]c3cc(Cl)ccc23)NC1=O` [X-Amcp-D-Dap-Cl-Trp + Acid 106], the “fraction of fluorescent probe displaced” value stood at 0.018.

Take `O=C(/C=C/c1ccc(Cl)cc1)NC[C@H]1NC(=O)C2(CC2)CNC(=O)CCSSCCNC(=O)[C@H](Cc2c[nH]c3cc(Cl)ccc23)NC1=O` [X-Amcp-D-Dap-Cl-Trp + Acid 108]: the “fraction of fluorescent probe displaced” value is on record as -0.025.

Take `O=C(/C=C/c1ccc(OCc2ccccc2)cc1)NC[C@H]1NC(=O)C2(CC2)CNC(=O)CCSSCCNC(=O)[C@H](Cc2c[nH]c3cc(Cl)ccc23)NC1=O` [X-Amcp-D-Dap-Cl-Trp + Acid 110]: the “fraction of fluorescent probe displaced” value is recorded as 0.008.

Regarding `O=C(/C=C/c1ccc2ccccc2c1)NC[C@H]1NC(=O)C2(CC2)CNC(=O)CCSSCCNC(=O)[C@H](Cc2c[nH]c3cc(Cl)ccc23)NC1=O` [X-Amcp-D-Dap-Cl-Trp + Acid 112], the “fraction of fluorescent probe displaced” value is reported as -0.00533.

Take `O=C(CCS(=O)(=O)c1ccccc1)NC[C@H]1NC(=O)C2(CC2)CNC(=O)CCSSCCNC(=O)[C@H](Cc2c[nH]c3cc(Cl)ccc23)NC1=O` [X-Amcp-D-Dap-Cl-Trp + Acid 114]: the “fraction of fluorescent probe displaced” value was -0.00533.

As to `O=C1CCSSCCNC(=O)[C@@H](Cc2c[nH]c3ccccc23)NC(=O)[C@@H](CNC(=O)c2ccc(Cl)cc2)NC(=O)C2(CC2)CN1` [X-Amcp-D-Dap-D-Trp + Acid 25], the “fraction of fluorescent probe displaced” value is recorded as 0.008.

As for `O=C1CCSSCCNC(=O)[C@@H](Cc2c[nH]c3ccccc23)NC(=O)[C@@H](CNC(=O)c2ccc3ccccc3c2)NC(=O)C2(CC2)CN1` [X-Amcp-D-Dap-D-Trp + Acid 107], the “fraction of fluorescent probe displaced” value stood at 0.031.

As to `O=C(/C=C/c1ccc(OCc2ccccc2)cc1)NC[C@H]1NC(=O)C2(CC2)CNC(=O)CCSSCCNC(=O)[C@@H](Cc2c[nH]c3ccccc23)NC1=O` [X-Amcp-D-Dap-D-Trp + Acid 110], the “fraction of fluorescent probe displaced” value is on record as -0.00533.

On to `O=C1CCSSCCNC(=O)[C@@H](Cc2c[nH]c3ccccc23)NC(=O)[C@@H](CNC(=O)c2cccc(Oc3ccccc3)c2)NC(=O)C2(CC2)CN1` [X-Amcp-D-Dap-D-Trp + Acid 111], for which the “fraction of fluorescent probe displaced” value is recorded as -0.019.

Turning to `O=C(CCS(=O)(=O)c1ccccc1)NC[C@H]1NC(=O)C2(CC2)CNC(=O)CCSSCCNC(=O)[C@@H](Cc2c[nH]c3ccccc23)NC1=O` [X-Amcp-D-Dap-D-Trp + Acid 114], the “fraction of fluorescent probe displaced” value is listed as 0.008.

Consider `Cn1cc(C[C@@H]2NC(=O)[C@@H](CNC(=O)c3ccc(Cl)s3)NC(=O)C3(CC3)CNC(=O)CCSSCCNC2=O)c2ccccc21` [X-Amcp-D-Dap-Me-Trp + Acid 14], for which the “fraction of fluorescent probe displaced” value is recorded as -0.032.

Consider `Cn1cc(C[C@@H]2NC(=O)[C@@H](CNC(=O)c3ccc(Cl)cc3)NC(=O)C3(CC3)CNC(=O)CCSSCCNC2=O)c2ccccc21` [X-Amcp-D-Dap-Me-Trp + Acid 25], for which the “fraction of fluorescent probe displaced” value is recorded as -0.00533.

Consider `Cn1cc(CC2NC(=O)C(CNC(=O)C3CC3c3ccccc3)NC(=O)C3(CC3)CNC(=O)CCSSCCNC2=O)c2ccccc21` [X-Amcp-D-Dap-Me-Trp + Acid 105], for which the “fraction of fluorescent probe displaced” value is reported as -0.002.

For `Cn1cc(C[C@@H]2NC(=O)[C@@H](CNC(=O)c3ccc4ccccc4c3)NC(=O)C3(CC3)CNC(=O)CCSSCCNC2=O)c2ccccc21` [X-Amcp-D-Dap-Me-Trp + Acid 107], the “fraction of fluorescent probe displaced” value amounted to 0.018.

Take `Cn1cc(C[C@@H]2NC(=O)[C@@H](CNC(=O)/C=C/c3ccc(Cl)cc3)NC(=O)C3(CC3)CNC(=O)CCSSCCNC2=O)c2ccccc21` [X-Amcp-D-Dap-Me-Trp + Acid 108]: the “fraction of fluorescent probe displaced” value was found to be 0.008.

For the molecule `Cn1cc(C[C@@H]2NC(=O)[C@@H](CNC(=O)/C=C/c3ccc4ccccc4c3)NC(=O)C3(CC3)CNC(=O)CCSSCCNC2=O)c2ccccc21` [X-Amcp-D-Dap-Me-Trp + Acid 112], the “fraction of fluorescent probe displaced” value is recorded as 0.00133.

The same assay, now with this note: Panel c, Library 4: best nine scaffolds and 15 additional carboxylic acids; displacement of fluorescent probe.
Consider `O=C(O)/C=C/c1ccc(F)cc1` [Acid 116], for which the “fraction of fluorescent probe displaced” value was 0.036.

With `CCOc1ccc(/C=C/C(=O)O)cc1` [Acid 117], the “fraction of fluorescent probe displaced” value was determined as 0.028.

As for `CCCOc1ccc(/C=C/C(=O)O)cc1` [Acid 118], the “fraction of fluorescent probe displaced” value worked out at 0.028.

`O=C(O)/C=C/c1ccc(Cl)c(Cl)c1` [Acid 119]: the “fraction of fluorescent probe displaced” value was 0.012.

As to `O=C(O)/C=C/c1cccc(Cl)c1` [Acid 121], the “fraction of fluorescent probe displaced” value is given as -0.00464.

Turning to `CC(=Cc1ccccc1)C(=O)O` [Acid 123], the “fraction of fluorescent probe displaced” value is -0.00464.

Take `CC(C)c1ccc(/C=C/C(=O)O)cc1` [Acid 127]: the “fraction of fluorescent probe displaced” value was -0.021.

As for `O=C(O)c1cnc2ccccc2n1` [Acid 130], the “fraction of fluorescent probe displaced” value was 0.0035.
